Experiment [1] deals with A. nosocomialis twitching motility. The experiment in a line: Twitching motility, crystal violet stained twitching area. It is filed as cell-based, Acinetobacter nosocomialis. The note with it: WT M2 strain; for effect on twitching of the WT strain at 128 μM: compared with ΔpilA; for concentration significantly reducing twitching: P < 0.05. From the text: (§1) The inhibitors may thus interact with conserved features of the PilB ATPase family. A. nosocomialis PilB ([19]), whose N terminus is not similar to the MshEN domain (data not shown), shares ~53% identity and ~74% homology with MxPilB and MC3PilB in the ATPase domain (Fig. S1). We analyzed whether benserazide and levodopa could impact the T4P-powered twitching motility ([19], [44]) of A. nosocomialis (Fig. 7), an opportunistic pathogen in the Acinetobacter calcoaceticus-Acinetobacter baumannii (ACB) complex ([45]). As shown in Fig. 7A and B and Fig. S7, benserazide and levodopa impede the twitching motility of WT A. nosocomialis in a concentration-dependent manner.
FIG 7 Benserazide and levodopa inhibit Acinetobacter nosocomialis twitching motility and biofilm formation. (A and B) Twitching motility is correlated with the twitching area (cm^2) of the A. nosocomialis wild-type (WT) strain in the presence of (A) benserazide or (B) levodopa, with the control (no inhibitor) normalized to 1. Data are from 3 independent experiments, each performed in triplicates and represented by dots of the same color. (C and D) Biofilms formed by A. nosocomialis with (C) benserazide or (D) levodopa were analyzed by a microplate assay with crystal violet (CV) staining. Results from three independent experiments, each performed in quadruplicates and represented by dots of the same color, are shown. Horizontal lines indicate overall averages, and asterisks (*) signify that values at the indicated concentration are statistically different from those of the control (P < 0.05).
The A. nosocomialis wild-type M2 strain and an isogenic pilA deletion (ΔpilA) mutant ([19], [46]) were used in this study. They were grown and maintained using MacConkey medium at 37°C. The twitching motility of the M2 strain of A. nosocomialis was analyzed with 1% crystal violet (CV) for staining, and twitching areas were used as measures of motility as previously described ([46]). These motility assays were conducted in triplicates and the stained area of the ΔpilA mutant was subtracted from that of the WT for data analysis. A. nosocomialis biofilm formation was analyzed using microplates and CV staining as previously described ([53], [54]). The biofilm assays were conducted in quadruplicate in MacConkey medium with tissue culture-treated microtiter plates (Falcon). CV absorbance (Acv) was measured at 590 nm using Infinite M200 PRO in clear polystyrene 96-well microplates (ExtraGene). Absorbance for each well was read 16 times using Multiple Reads with the average as the final Acv value. Readings from control wells without bacteria were subtracted for normalization. Statistical differences were determined using a Student’s t test.

Another experiment deals with M. xanthus. The experiment in a line: Growth in liquid culture. It is filed as cell-based, Myxococcus xanthus. As to conditions: up to 512 μM (highest tested), data not shown. From the text:
These include many bacteria with alarming prevalence for causing antibiotic-resistant infection ([12]). […] This is important because, for the development of antivirulence chemotherapies, the small molecules should not have an inhibitory effect on bacterial growth. Otherwise, they would select for resistance, just like antibiotics. From a chemical structure perspective, levodopa is 3,4-dihydroxyphenylalanine (Fig. 2), or phenylalanine with two hydroxyl groups. […] These preliminary studies of structure and activity relationships are consistent with benserazide and levodopa being specific inhibitors of PilB. As mentioned earlier, work with trifluoperazine ([25]) and P4MP4 ([26], [27]) has provided the proof of principle for antivirulence therapies with anti-T4P compounds. It is also encouraging that a compound targeting the adhesin function of the type 1 pilus of the uropathogenic E. coli (UPEC) ([47]) has moved to the clinical trial phase in the drug development pipeline ([48]).

Experiment [2] has as its system A. nosocomialis biofilm formation. The experiment in a line: Biofilm formation, microplate assay with crystal violet staining. In kind it is cell-based, Acinetobacter nosocomialis. The note with it: WT, P < 0.05.
Source text: as §1
FIG 7 Benserazide and levodopa inhibit Acinetobacter nosocomialis twitching motility and biofilm formation. […] (C and D) Biofilms formed by A. nosocomialis with (C) benserazide or (D) levodopa were analyzed by a microplate assay with crystal violet (CV) staining. […]
The A. nosocomialis wild-type M2 strain and an isogenic pilA deletion (ΔpilA) mutant ([19], [46]) were used in this study. […] The twitching motility of the M2 strain of A. nosocomialis was analyzed with 1% crystal violet (CV) for staining, and twitching areas were used as measures of motility as previously described ([46]). […] A. nosocomialis biofilm formation was analyzed using microplates and CV staining as previously described ([53], [54]). […]

SMILES strings stand for the structures.

For `NC(CO)C(=O)NNCc1ccc(O)c(O)c1O` (centres unmarked) [benserazide], in experiment [1], the “effect on twitching of the WT strain at 128 μM” value is reported as “eliminated twitching” and the “concentration significantly reducing twitching” value was ≥ 32 µM. The “effect on growth in liquid culture” value in the experiment on M. xanthus is recorded as “neither benserazide nor levodopa had any discernible effect on the growth”. In addition, the “concentration significantly reducing biofilm formation” value in experiment [2] was ≥ 32 µM.

In the case of `N[C@@H](Cc1ccc(O)c(O)c1)C(=O)O` [levodopa, 3,4-dihydroxyphenylalanine], in experiment [1], the “effect on twitching of the WT strain at 128 μM” value is listed as “eliminated twitching” and the “concentration significantly reducing twitching” value was ≥ 32 µM. Also, in the experiment on M. xanthus, the “effect on growth in liquid culture” value is “neither benserazide nor levodopa had any discernible effect on the growth”. Further, the “concentration significantly reducing biofilm formation” value in experiment [2] was ≥ 32 µM.

These data come from publication PMC9769694, “Discovery of Two Inhibitors of the Type IV Pilus Assembly ATPase PilB as Potential Antivirulence Compounds” (Microbiology Spectrum, 2022).
